Our source for the IC50 values is patent publication US20210317092A1 (BAYER PHARMA AKTIENGESELLSCHAFT, priority 2016, published 2021).

The target in the first assay is T1, human Bradykinin B1 receptor (Homo sapiens, UniProt P46663).
T1 construct: host or cells: CHO-K1
T1 sequence (P46663 1-353): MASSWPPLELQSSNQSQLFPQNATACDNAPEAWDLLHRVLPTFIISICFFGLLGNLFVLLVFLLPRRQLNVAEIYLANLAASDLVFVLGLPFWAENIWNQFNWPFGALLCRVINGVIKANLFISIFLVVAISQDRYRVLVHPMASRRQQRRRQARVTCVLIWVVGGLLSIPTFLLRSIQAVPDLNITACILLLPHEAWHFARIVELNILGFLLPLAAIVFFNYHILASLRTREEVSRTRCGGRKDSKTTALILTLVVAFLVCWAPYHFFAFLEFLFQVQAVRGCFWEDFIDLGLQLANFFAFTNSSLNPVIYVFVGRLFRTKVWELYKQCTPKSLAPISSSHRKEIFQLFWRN
Kind of assay: Calcium flux Assay (FLIPR) with recombinant CHO-K1 cells expressing human Bradykinin B1 receptor, in presence (hB1 IC50) or absence (hB1 free IC50) of 0.1% BSA. To be noted: in absence of 0.1% BSA, read-out: hB1 free IC50. It is filed as cell-based. The protocol: The potency to inhibit the Bradykinin B1 receptor was determined for the compounds of this invention in a cell-based fluorescent calcium-mobilisation assay. The assay measures the ability of test compounds to inhibit Bradykinin B1 receptor agonist-induced increase of intracellular free Ca^2+ in the cell line expressing Bradykinin B1 receptor. […] The change of the intracellular Ca^2+ concentration is monitored with a fluorescent plate reader FLIPR TETRA® (Molecular Devices).
Calcium flux Assays (FLIPR) with cells expressing human Bradykinin B1 receptor (hB1)
CHO-K1 cell line expressing human Bradykinin B1 receptor was purchased from Euroscreen (Gosselies, Belgium, with reference name hB1-D1). The cells were grown in Nutrient Mixture Ham's F12 (Sigma) containing 10% Foetal bovine serum (Sigma) and 400 μg/mL G418 (Sigma), 5 μg/mL puromycim (Sigma). […]
Cells were seeded in a volume of 50 μL in medium without antibiotics and incubated overnight in a humidified atmosphere with 5% CO2 at 37° C. […] The calcium indicator loaded cells were incubated at 37° C. for 2 hrs. Extracellular dye was then removed and each well was filled with 45 μL of assay buffer. Cell plates were kept in dark until used. Compound examples were assayed at 8 concentrations in triplicate. Serial 10-fold dilutions in 100% DMSO were made at a 100-times higher concentration than the final concentration, and then diluted 1:10 in assay buffer. 5 μL of each diluted compound was added to the well of cell plates (yielding final concentration with 1% DMSO), and incubated for 30 min at 28° C. before the addition of Bradykinin B1 receptor agonist on the FLIPR instrument.
A peptide antagonist Lys-(Des-Arg-Leu)-Bradykinin (Bachem, Brackley) at 20 µM was used to determine the full inhibition as control.
Peak fluorescence was used to determine the response to agonist obtained at each concentration of compound examples by the following equation:
% Response=100*(RFU(compound)−RFU(control))/(RFU(DMSO)−RFU(control)) • RFU means relative fluorescence units. • Control means full inhibition by the peptide antagonist Lys-(Des-Arg-Leu)-Bradykinin at 20 µM.
The response values were plotted against the logarithm of the compound concentrations. The compound examples were tested in triplicates per plate and mean values were plotted in Excel XLfit to determine IC50 values, percentage of maximal inhibition and the Hill slopes.
On the technique in general: Calcium assays in cells follow changes in intracellular calcium, usually with a dye or a luminescent sensor.
In the case of `O=C(Nc1ccc(-c2ccc(C(F)(F)F)nc2)c(-c2nnn[nH]2)c1F)C1(c2ccc(OC(F)(F)F)cc2F)CC1` [Example 301, N-{2-fluoro-3-(1H-tetrazol-5-yl)-4-[6-(trifluoromethyl)pyridin-3-yl]phenyl}-1-[2-fluoro-4-(trifluoromethoxy)phenyl]cyclo-propanecarboxa-mide], the IC50 (in general, the concentration at which inhibition is half-maximal) amounted to 36.1 nM.

On to `O=C(Nc1ccc(-n2cnc(C(F)(F)F)c2)c(-c2nnn[nH]2)c1)C1(c2ccc(OC(F)(F)F)cc2F)CC1` [Example 362, 1-[2-Fluoro-4-(trifluoromethoxy)phenyl]-N-{3-(1H-tetrazol-5-yl)-4-[4-(trifluoromethyl)-1H-imidazol-1-yl]phenyl}cyclopro-panecarboxa-mide], for which the IC50 amounted to 26.4 nM.

In the case of “1-(3,4- difluorophenyl)- N-{3-(1H- tetrazol-5-yl)-4- [3-(2,2,2- trifluoroethyl)- 1H-pyrazol-1- yl]phenyl}cyclopro- panecarboxa- mide [Example 387]”, the IC50 was 434 nM.

On to `CCOc1cc(-c2ccc(NC(=O)C3(c4cccc(Cl)c4)CC3)cc2-c2nnn[nH]2)cc(C(F)(F)F)n1` [Example 166, 1-(3-chlorophenyl)-N-{4-[2-ethoxy-6-(trifluoromethyl)pyridin-4-yl]-3-(1H-tetrazol-5-yl)phenyl} cyclopropane-carboxamide], for which the IC50 came out at 1130 nM.

As to `Cc1nc(C(F)(F)F)nn1-c1ccc(NC(=O)C2(c3ccc(F)c(F)c3)CC2)cc1-c1nnn[nH]1` [Example 360, 1-(3,4-difluorophenyl)-N-{4-[5-methyl-3-(trifluoromethyl)-1H-1,2,4-triazol-1-yl]-3-(1H-tetrazol-5-yl)phenyl}cyclopro-panecarboxa-mide], the IC50 stood at 1700 nM.

On to `O=C(Nc1ccc(-c2ccc(C(F)(F)F)nc2)c(-c2nnn[nH]2)c1)C1(c2ccc(F)cn2)CC1` [Example 145, 1-(5-fluoropyridin-2-yl)-N-{3-(1H-tetrazol-5-yl)-4-[6-(trifluoromethyl)pyridin-3-yl]phenyl} cyclopropane-carboxamide], for which the IC50 worked out at 194 nM.

Consider `CCOc1ccc(-c2ccc(NC(=O)C3(c4ccc(C)c(F)c4)CC3)cc2-c2nnn[nH]2)cn1` [Example 76, N-[4-(6-ethoxypyridin-3-yl)-3-(1H-tetrazol-5-yl)phenyl]-1-(3-fluoro-4-methylphenyl) cyclopropane-carboxamide], for which the IC50 came to 12 nM.

`CCC1CCN(c2ccc(NC(=O)C3(c4ccc(C)cc4F)CC3)cc2-c2nnn[nH]2)C1=O` (stereo not drawn) [Example 407, N-[4-(3-ethyl-2-oxopyrrolidin-1-yl)-3-(1H-tetrazol-5-yl)phenyl]-1-(2-fluoro-4-methylphenyl)cy-clopropanecar-boxamide]: the IC50 is 474 nM.

Turning to `O=C(Nc1ccc(-n2cnc(C(F)(F)F)c2)c(-c2nnn[nH]2)c1)C1(c2ccc(C(F)(F)F)cc2F)CC1` [Example 347, 1-[2-Fluoro-4-(trifluoromethyl)phenyl]-N-{3-(1H-tetrazol-5-yl)-4-[4-(trifluoromethyl)-1H-imidazol-1-yl]phenyl}cyclopro-panecarboxa-mide], the IC50 came out at 96.6 nM.

Take `Cc1cc(-c2c(F)cc(NC(=O)C3(c4cccc(Cl)c4)CC3)cc2-c2nnn[nH]2)ccn1` [Example 246, 1-(3-chlorophenyl)-N-[3-fluoro-4-(2-methylpyridin-4-yl)-5-(1H-tetrazol-5-yl)phenyl] cyclopropane carboxamide]: the IC50 was 16 nM.

For the compound `COc1ccc(-c2ccc(NC(=O)C3(c4ccc(C(F)(F)F)cc4F)CC3)cc2-c2nnn[nH]2)cc1C(F)(F)F` [Example 131, 1-[2-fluoro-4-(trifluoromethyl)phenyl]-N-[4′-methoxy-2-(1H-tetrazol-5-yl)-3′-(trifluoromethyl)biphenyl-4-yl]cyclopropane carboxamide], the IC50 is 53 nM.

Take `CC(C)c1cnn(-c2ccc(NC(=O)C3(c4ccc(OC(F)(F)F)cc4F)CC3)cc2-c2nnn[nH]2)c1` [Example 413, 1-[2-fluoro-4-(trifluoromethoxy)phenyl]-N-[4-(4-isopropyl-1H-pyrazol-1-yl)-3-(1H-tetrazol-5-yl)phenyl]cyclopro-panecarboxa-mide]: the IC50 was found to be 5.84 nM.

Take `CCC(F)(F)c1ccc(-c2ccc(NC(=O)C3(c4ccc(F)c(F)c4)CC3)cc2-c2nnn[nH]2)cn1` [Example 284, 1-(3,4-difluorophenyl)-N-{4-[6-(1,1-difluoropropyl)py-ridin-3-yl]-3-(1H-tetrazol-5-yl)phenyl}cyclopro-panecarboxa-mide]: the IC50 is 15.3 nM.

Take `CCOc1ccc(-c2ccc(NC(=O)C3(c4cc(F)ccc4C)CC3)cc2-c2nnn[nH]2)cn1` [Example 254, N-[4-(6-ethoxypyridin-3-yl)-3-(1H-tetrazol-5-yl)phenyl]-1-(5-fluoro-2-methylphenyl)cy-clopropanecar-boxamide]: the IC50 amounted to 309 nM.

Still in this assay, the particulars now being: in presence of 0.1% BSA, read-out: hB1 IC50.
With `COc1cc(-c2ccc(NC(=O)C3(c4cccc(Cl)c4)CC3)cc2-c2nnn[nH]2)ccn1` [Example 320, 1-(3-Chlorophenyl)-N-[4-(2-methoxypyridin-4-yl)-3-(1H-tetrazol-5-yl)phenyl]cyclopro-panecarboxa-mide], the IC50 was found to be 208 nM.

`COc1ccc(-c2ccc(NC(=O)C3(C4CCC(C)CC4)CC3)cc2-c2nnn[nH]2)cc1OC` (single isomer, unassigned) [Example 52, N-[3′,4′-dimethoxy-2-(1H-tetrazol-5-yl)biphenyl-4-yl]-1-(4-methylcyclohexyl) cyclopropane carboxamide]: the IC50 amounted to 122 nM.

As to `CCOc1cc(-c2ccc(NC(=O)C3(c4cccc(Cl)c4)CC3)cc2-c2nnn[nH]2)cc(C(F)(F)F)n1` [Example 166, 1-(3-chlorophenyl)-N-{4-[2-ethoxy-6-(trifluoromethyl)pyridin-4-yl]-3-(1H-tetrazol-5-yl)phenyl} cyclopropane-carboxamide], the IC50 was 2160 nM.

On to `COc1ccc(-c2ccc(NC(=O)C3(c4ccc(C(C)(C)C)cc4)CC3)cc2-c2nnn[nH]2)cc1OC` [Example 46, 1-(4-tert-butylphenyl)-N-[3′,4′-dimethoxy-2-(1H-tetrazol-5-yl)biphenyl-4-yl]cyclopropane carboxamide], for which the IC50 came to 141 nM.

Regarding `COc1ccc(-c2ccc(NC(=O)C3(c4cccc(F)c4Cl)CC3)cc2-c2nnn[nH]2)cc1OC` [Example 49, 1-(2-chloro-3-fluorophenyl)-N-[3′,4′-dimethoxy-2-(1H-tetrazol-5-yl)biphenyl-4-yl]cyclopropane carboxamide], the IC50 stood at 213 nM.

With `CCOc1ccc(-c2ccc(NC(=O)C3(c4ccc(C)c(F)c4)CC3)cc2-c2nnn[nH]2)cn1` [Example 76, N-[4-(6-ethoxypyridin-3-yl)-3-(1H-tetrazol-5-yl)phenyl]-1-(3-fluoro-4-methylphenyl) cyclopropane-carboxamide], the IC50 came out at 24 nM.

`COc1ccc(F)c(C2(C(=O)Nc3ccc(-c4ccc(OC)c(OC)c4)c(-c4nnn[nH]4)c3)CC2)c1` [Example 31, N-[3′,4′-dimethoxy-2-(1H-tetrazol-5-yl)biphenyl-4-yl]-1-(2-fluoro-5-methoxyphenyl) cyclopropane-carboxamide]: the IC50 is 212 nM.

As for `COc1ccc(-c2ccc(NC(=O)C3(c4cc(F)ccc4F)CC3)cc2-c2nnn[nH]2)cc1OC` [Example 21, 1-(2,5-difluorophenyl)-N-[3′,4′-dimethoxy-2-(1H-tetrazol-5-yl)biphenyl-4-yl]cyclopropane carboxamide], the IC50 was 367 nM.

On to `COc1cncc(-c2ccc(NC(=O)C3(c4ccc(F)cc4F)CC3)cc2-c2nnn[nH]2)c1` [Example 150, 1-(2,4-difluorophenyl)-N-[4-(5-methoxypyridin-3-yl)-3-(1H-tetrazol-5-yl)phenyl] cyclopropane-carboxamide], for which the IC50 came to 39.2 nM.

For the compound `COc1ccc(C2(C(=O)Nc3ccc(-c4ccc(OC)c(OC)c4)c(-c4nnn[nH]4)c3)CC2)cc1F` [Example 24, N-[3′,4′-dimethoxy-2-(1H-tetrazol-5-yl)biphenyl-4-yl]-1-(3-fluoro-4-methoxyphenyl) cyclopropane-carboxamide], the IC50 was 232 nM.

Consider `CCOc1ccc(-c2ccc(NC(=O)C(C)(C)c3cccc(Cl)c3)cc2-c2nnn[nH]2)cn1` [Example 67, 2-(3-chlorophenyl)-N-[4-(6-ethoxypyridin-3-yl)-3-(1H-tetrazol-5-yl)phenyl]-2-methyl-propanamide], for which the IC50 was found to be 394 nM.

`COc1ccc(-c2ccc(NC(=O)C3(c4cccc(C)c4)CC3)cc2-c2nnn[nH]2)cc1OC` [Example 39, N-[3′,4′-dimethoxy-2-(1H-tetrazol-5-yl)biphenyl-4-yl]-1-(3-methylphenyl) cyclopropane-carboxamide]: the 50% inhibitory concentration (IC50) was determined as 80.3 nM.

For the compound `CCOc1ccc(-c2ccc(NC(=O)C3(c4cc(F)ccc4C)CC3)cc2-c2nnn[nH]2)cn1` [Example 254, N-[4-(6-ethoxypyridin-3-yl)-3-(1H-tetrazol-5-yl)phenyl]-1-(5-fluoro-2-methylphenyl)cy-clopropanecar-boxamide], the IC50 is 245 nM.
